Measurements reported in the NIST ThermoML archive (doi:10.1021/je500114m).
Numbers after ± are expanded uncertainties. One block for each compound: values may come before it.

Assay: mn = molality of the nth substance listed, in mol/kg
Settings: 298.15 K, Ring tensiometer

surface tension liquid-gas (m2 = 0): 71 ± 0.9 mN/m
SMILES: O [water] + COC(=O)c1ccccc1O

surface tension liquid-gas (m2 = 0): 70.2 ± 1 mN/m
SMILES: O [water] + CC/C=C\CCOC(C)=O

surface tension liquid-gas (m2 = 0): 70.8 ± 1 mN/m
SMILES: O [water] + C=CC(C)(C)O

The remaining lines, values behind:

SMILES: CC/C=C\CCO [(Z)-3-hexen-1-ol] + O
surface tension liquid-gas (m1 = 0.001): 69.5 ± 0.9 mN/m | surface tension liquid-gas (m1 = 0.003): 65.2 ± 1.4 mN/m | surface tension liquid-gas (m1 = 0.005): 63.5 ± 0.8 mN/m | surface tension liquid-gas (m1 = 0.006): 61.5 ± 0.8 mN/m

SMILES: C=CC(C)(C)O [2-methyl-3-buten-2-ol] + O
surface tension liquid-gas (m1 = 0.001): 70.6 ± 0.9 mN/m | surface tension liquid-gas (m1 = 0.003): 69.7 ± 0.9 mN/m | surface tension liquid-gas (m1 = 0.0052): 69.5 ± 0.9 mN/m | surface tension liquid-gas (m1 = 0.0088): 67.7 ± 0.9 mN/m

SMILES: CC/C=C\CCOC(C)=O [(Z)-3-hexenyl acetate] + O
surface tension liquid-gas (m1 = 0.0006): 66.8 ± 0.9 mN/m | surface tension liquid-gas (m1 = 0.0015): 62.3 ± 0.8 mN/m | surface tension liquid-gas (m1 = 0.0019): 58.7 ± 1.1 mN/m

SMILES: O [water] + CC/C=C\CCO
surface tension liquid-gas (m2 = 0): 71.5 ± 0.9 mN/m

SMILES: COC(=O)c1ccccc1O [methyl 2-hydroxybenzoate] + O
surface tension liquid-gas (m1 = 0.001): 70.8 ± 0.9 mN/m | surface tension liquid-gas (m1 = 0.0021): 70.1 ± 0.9 mN/m | surface tension liquid-gas (m1 = 0.0031): 68.9 ± 0.9 mN/m | surface tension liquid-gas (m1 = 0.0053): 65.2 ± 1.1 mN/m
